# Laboratory results from ChEMBL document CHEMBL1131901, “Synthesis and opiate receptor binding properties of 17-methyl-6,7-dehydro-3,14-dihydroxy-4,5alpha-epoxy-6,7:4',5'-pyrimidin omorphinans” (Bioorg Med Chem Lett, 1999).
# Target: T1, Delta-type opioid receptor (Homo sapiens, UniProt P41143)
# Experiment: (§1) Agonistic activity against human opioid Delta receptor transfected into Chinese hamster ovary (CHO) cells using [3H]Cl-DPDPE as radioligand
# Format: functional, cell-based
# Details: not given
# T1 sequence (P41143 whole entry): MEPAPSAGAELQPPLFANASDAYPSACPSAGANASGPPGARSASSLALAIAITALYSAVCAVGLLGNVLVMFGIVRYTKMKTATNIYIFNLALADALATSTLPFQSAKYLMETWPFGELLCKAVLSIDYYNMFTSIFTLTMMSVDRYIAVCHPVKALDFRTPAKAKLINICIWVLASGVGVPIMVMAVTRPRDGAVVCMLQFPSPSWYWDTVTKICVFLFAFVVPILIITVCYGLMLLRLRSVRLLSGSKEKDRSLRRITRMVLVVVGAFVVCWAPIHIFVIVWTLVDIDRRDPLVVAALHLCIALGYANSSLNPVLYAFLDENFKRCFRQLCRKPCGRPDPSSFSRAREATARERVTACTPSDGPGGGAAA
row,Compound,EC50 [µM]
1,Cc1ncc2c(n1)C1Oc3c(O)ccc4c3C13CCN(C)C(C4)C3(O)C2 (centres undefined),0.0959
2,CN1CCC23c4c5ccc(O)c4OC2c2nc(-c4ccccc4)ncc2CC3(O)C1C5 (centres undefined),0.024
3,CN1CCC23c4c5ccc(O)c4OC2c2nc(N)ncc2CC3(O)C1C5 (centres undefined),0.0661
4,CN1CCC23c4c5ccc(O)c4OC2c2n[nH]cc2CC3(O)C1C5 (centres undefined),0.025
5,CN1CCC23c4c5ccc(O)c4OC2c2[nH]c(=O)ncc2CC3(O)C1C5 (centres undefined),0.0615

# Target: T1, Delta-type opioid receptor
# Experiment: Binding affinity towards human opioid Delta receptor transfected into Chinese hamster ovary (CHO) cells using [3H]Cl-DPDPE as radioligand.
# Format: cell-based
# Details: not given
row,Compound,Ki [µM]
1,Cc1ncc2c(n1)C1Oc3c(O)ccc4c3C13CCN(C)C(C4)C3(O)C2 (centres undefined),0.024
2,CN1CCC23c4c5ccc(O)c4OC2c2nc(-c4ccccc4)ncc2CC3(O)C1C5 (centres undefined),0.00648
3,CN1CCC23c4c5ccc(O)c4OC2c2nc(N)ncc2CC3(O)C1C5 (centres undefined),0.019
4,CN1CCC23c4c5ccc(O)c4OC2c2n[nH]cc2CC3(O)C1C5 (centres undefined),0.0122
5,CN1CCC23c4c5ccc(O)c4OC2c2[nH]c(=O)ncc2CC3(O)C1C5 (centres undefined),0.0191

# Target: T2, Kappa-type opioid receptor (Homo sapiens, UniProt P41145)
# Experiment: Binding affinity towards human opioid Kappa receptor transfected into Chinese hamster ovary (CHO) cells using [3H]U-69593 as radioligand.
# Format: cell-based
# Details: not given
# T2 sequence (P41145 whole entry): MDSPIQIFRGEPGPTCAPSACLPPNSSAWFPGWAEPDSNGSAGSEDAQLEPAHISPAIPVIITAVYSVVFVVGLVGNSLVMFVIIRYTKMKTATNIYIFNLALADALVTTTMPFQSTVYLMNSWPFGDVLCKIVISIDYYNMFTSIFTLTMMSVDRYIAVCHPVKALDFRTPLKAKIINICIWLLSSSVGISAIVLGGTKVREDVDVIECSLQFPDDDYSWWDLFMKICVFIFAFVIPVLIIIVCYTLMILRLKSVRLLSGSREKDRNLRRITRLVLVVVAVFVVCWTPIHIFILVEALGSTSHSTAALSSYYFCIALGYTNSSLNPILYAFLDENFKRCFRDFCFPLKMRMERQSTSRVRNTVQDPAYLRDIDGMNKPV
row,Compound,Ki [µM]
1,Cc1ncc2c(n1)C1Oc3c(O)ccc4c3C13CCN(C)C(C4)C3(O)C2 (centres undefined),0.0685
2,CN1CCC23c4c5ccc(O)c4OC2c2nc(-c4ccccc4)ncc2CC3(O)C1C5 (centres undefined),0.045
3,CN1CCC23c4c5ccc(O)c4OC2c2nc(N)ncc2CC3(O)C1C5 (centres undefined),0.0211
4,CN1CCC23c4c5ccc(O)c4OC2c2n[nH]cc2CC3(O)C1C5 (centres undefined),0.0119
5,CN1CCC23c4c5ccc(O)c4OC2c2[nH]c(=O)ncc2CC3(O)C1C5 (centres undefined),0.0123

# Target: T2, Kappa-type opioid receptor
# Experiment: (§2) Agonistic activity against human opioid Kappa receptor transfected into Chinese hamster ovary (CHO) cells using [3H]U-69593 as radioligand
# Format: functional, cell-based
# Details: not given
row,Compound,Stimulation [%]
1,CN1CCC23c4c5ccc(O)c4OC2c2nc(O)ncc2CC3(O)C1C5 (centres undefined),40.7
2,Cc1ncc2c(n1)C1Oc3c(O)ccc4c3C13CCN(C)C(C4)C3(O)C2 (centres undefined),97
3,CN1CCC23c4c5ccc(O)c4OC2c2nc(-c4ccccc4)ncc2CC3(O)C1C5 (centres undefined),49.5
4,CN1CCC23c4c5ccc(O)c4OC2c2nc(N)ncc2CC3(O)C1C5 (centres undefined),34.3
5,CN1CCC23c4c5ccc(O)c4OC2c2n[nH]cc2CC3(O)C1C5 (centres undefined),18.9

# Target: T3, Mu-type opioid receptor (Homo sapiens, UniProt P35372)
# Experiment: Agonistic activity against human opioid Mu receptor transfected into Chinese hamster ovary (CHO) cells using [3H]-DAMGO as radioligand
# Format: functional, cell-based
# Details: not given
# T3 sequence (P35372 whole entry): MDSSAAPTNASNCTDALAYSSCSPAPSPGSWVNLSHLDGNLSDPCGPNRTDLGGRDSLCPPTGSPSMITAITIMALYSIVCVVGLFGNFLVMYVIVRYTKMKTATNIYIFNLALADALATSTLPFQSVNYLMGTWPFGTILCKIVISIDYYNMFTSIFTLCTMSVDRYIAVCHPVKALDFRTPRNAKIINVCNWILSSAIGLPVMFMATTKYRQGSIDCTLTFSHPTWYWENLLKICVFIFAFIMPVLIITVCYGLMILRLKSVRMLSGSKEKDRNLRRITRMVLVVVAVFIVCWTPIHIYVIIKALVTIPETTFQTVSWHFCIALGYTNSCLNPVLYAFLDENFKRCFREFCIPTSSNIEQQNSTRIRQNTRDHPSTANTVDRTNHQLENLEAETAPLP
row,Compound,EC50 [µM]
1,Cc1ncc2c(n1)C1Oc3c(O)ccc4c3C13CCN(C)C(C4)C3(O)C2 (centres undefined),0.0719
2,CN1CCC23c4c5ccc(O)c4OC2c2nc(-c4ccccc4)ncc2CC3(O)C1C5 (centres undefined),0.0584
3,CN1CCC23c4c5ccc(O)c4OC2c2nc(N)ncc2CC3(O)C1C5 (centres undefined),0.0752
4,CN1CCC23c4c5ccc(O)c4OC2c2n[nH]cc2CC3(O)C1C5 (centres undefined),0.0193
5,CN1CCC23c4c5ccc(O)c4OC2c2[nH]c(=O)ncc2CC3(O)C1C5 (centres undefined),0.11

# Target: T3, Mu-type opioid receptor
# Experiment: Binding affinity towards human opioid Mu receptor transfected into Chinese hamster ovary (CHO) cells using [3H]DAMGO as radioligand
# Format: cell-based
# Details: not given
row,Compound,Ki [µM]
1,Cc1ncc2c(n1)C1Oc3c(O)ccc4c3C13CCN(C)C(C4)C3(O)C2 (centres undefined),0.00526
2,CN1CCC23c4c5ccc(O)c4OC2c2nc(-c4ccccc4)ncc2CC3(O)C1C5 (centres undefined),0.00734
3,CN1CCC23c4c5ccc(O)c4OC2c2nc(N)ncc2CC3(O)C1C5 (centres undefined),0.00732
4,CN1CCC23c4c5ccc(O)c4OC2c2n[nH]cc2CC3(O)C1C5 (centres undefined),0.00172
5,CN1CCC23c4c5ccc(O)c4OC2c2[nH]c(=O)ncc2CC3(O)C1C5 (centres undefined),0.00375

# Target: T1, Delta-type opioid receptor
# Experiment: as §1
# Format: functional, cell-based
# Details: not given
row,Compound,Stimulation [%]
1,CN1CCC23c4c5ccc(O)c4OC2c2nc(O)ncc2CC3(O)C1C5 (centres undefined),97
2,Cc1ncc2c(n1)C1Oc3c(O)ccc4c3C13CCN(C)C(C4)C3(O)C2 (centres undefined),60
3,CN1CCC23c4c5ccc(O)c4OC2c2nc(-c4ccccc4)ncc2CC3(O)C1C5 (centres undefined),92.5
4,CN1CCC23c4c5ccc(O)c4OC2c2n[nH]cc2CC3(O)C1C5 (centres undefined),75.2

# Target: T3, Mu-type opioid receptor
# Experiment: as §1
# Format: functional, cell-based
# Details: not given
row,Compound,Stimulation [%]
1,CN1CCC23c4c5ccc(O)c4OC2c2nc(N)ncc2CC3(O)C1C5 (centres undefined),78.7

# Target: T3, Mu-type opioid receptor
# Experiment: Agonistic activity against human opioid Mu receptor transfected into Chinese hamster ovary (CHO) cells using [3H]DAMGO as radioligand
# Format: functional, cell-based
# Details: not given
row,Compound,Stimulation [%]
1,CN1CCC23c4c5ccc(O)c4OC2c2nc(O)ncc2CC3(O)C1C5 (centres undefined),87.7
2,Cc1ncc2c(n1)C1Oc3c(O)ccc4c3C13CCN(C)C(C4)C3(O)C2 (centres undefined),109
3,CN1CCC23c4c5ccc(O)c4OC2c2nc(-c4ccccc4)ncc2CC3(O)C1C5 (centres undefined),89.4
4,CN1CCC23c4c5ccc(O)c4OC2c2n[nH]cc2CC3(O)C1C5 (centres undefined),80.3

# Target: T2, Kappa-type opioid receptor
# Experiment: as §2
# Format: functional, cell-based
# Details: not given
row,Compound,EC50 [µM]
1,Cc1ncc2c(n1)C1Oc3c(O)ccc4c3C13CCN(C)C(C4)C3(O)C2 (centres undefined),2.73
2,CN1CCC23c4c5ccc(O)c4OC2c2nc(-c4ccccc4)ncc2CC3(O)C1C5 (centres undefined),1.42
3,CN1CCC23c4c5ccc(O)c4OC2c2nc(N)ncc2CC3(O)C1C5 (centres undefined),1.07
4,CN1CCC23c4c5ccc(O)c4OC2c2[nH]c(=O)ncc2CC3(O)C1C5 (centres undefined),1.02

# Target: T2, Kappa-type opioid receptor
# Details: CHO
# Description: Antagonistic activity against human opioid Kappa receptor transfected into Chinese hamster ovary (CHO) cells using [3H]U-69593 as radioligand
row,Compound,Ke
1,CN1CCC23c4c5ccc(O)c4OC2c2n[nH]cc2CC3(O)C1C5 (centres undefined),59.3
